Measurements taken from patent US9107816B2, “Implantable device for controlled dissolution and diffusion of low solubility drug” (TARIS BIOMEDICAL LLC, priority 2011, dated 2015).

Test: In vitro release of mitomycin C from housing module (100% MMC tablets)
Type: physicochemical
Details: 100% MMC tablet, one face exposed, 20 mL deionized water at 37° C., replenished daily, 8 days, n=3, FIG. 43
Procedure: The diameter of the tablets was either 2.1 mm or 2.6 mm with the height of 2 mm. The mass of the tablet was approximately 10 mg for 2.1 mm diameter tablet and 16 mg for 2.6 mm diameter tablet.
Housing modules were made from segments of silicone tube and silicone adhesive. […] The surface ‘b’ of tablet 402 was surrounded by silicone tube 406 and the surface ‘c’ was in contact with silicone adhesive 408.
Specifically, the housing module 400 was submerged in 20 mL deionized water at 37° C., with the release medium being entirely replenished daily during the test period. The cumulative release of MMC was measure over the test period. In vitro release data is shown in FIG. 43 (n=3; the error bars indicate S.D. around the mean.) (Some error bars are not shown, i.e., when they are smaller than the symbols.).

## CO[C@@]12[C@H](COC(N)=O)C3=C(C(=O)C(C)=C(N)C3=O)N1C[C@@H]1N[C@@H]12 [MMC, mitomycin C]
  cumulative release of MMC (release kinetics): near zero order release was achieved until the tablet was all eroded
